Assay results: patent USRE38329E1, “Chelated complexes of paramagnetic metals with low toxicity” (Bracco Imaging S.p.A., priority 1997, dated 2003)

tested on: mouse; assay: DL50 after intracerebroventricular administration to the mouse (neurotoxicity / molecular toxicity); assay type: in vivo
Excerpt: DL50 values after intracerebral administration (intracisternal, intracerebroventricular), for example in the mouse and in the rat, can therefore be taken as a highly sensitive index of the molecular toxicity of the contrast agent (Toxicology Letters, cited ref.). In particular, the intracerebroventricular administration seems to be the most sensitive to discriminate the neurotoxicity of the compounds (Proceedings of the 10th National Congress of the Italian Toxicology Society, Pavia, September 21-24th, 100, 1994).
The present invention relates to chelated complexes of paramagnetic metals characterized by an extremely favourable neurotoxicity profile. […] The compound described in example 1 (gadolinium complex of 10-[2-[[2-(2-hydroxyethoxy)ethyl]amino]-2-oxoethyl]-α,α′,α″-tris(hydroxymethyl)-1,4,7,10-tetraazacyclododecane-1,4,7-triacetic) acid has, for example, a DL50 of 0.23 mmol/kg after intracerebroventricular administration to the mouse. The compounds described in example 2 (gadolinium complex of α,α′,α″-tris (hydroxymethyl)-10-(2-hydroxypropyl)-1,4,7,10-tetraazacyclododecane-1,4,7-triacetic acid) and in Example 4 (Na^+Gd[THM-DOTA]^−) have a very good tolerability as well, with a DL50, after intracerebroventricular administration to the mouse, of 0.170 and 0.150 mmol/kg, respectively; the corresponding value for Gd-DOTA being 0.064 mmol/kg.

SMILES | DL50 after intracerebroventricular administration to the mouse [mmol/kg]
O=C([O-])CN1C[C@@H](CO)N(CC(=O)[O-])C[C@@H](CO)N(CC(=O)[O-])C[C@@H](CO)N(CC(=O)[O-])C[C@H]1CO.[Gd+3].[Na+] (relative stereo) [Example 4, Gadolinium complex of [2S-(2R*,5R*,8R*,11R*)]-2,5,8,11-tetra(hydroxymethyl)-1,4,7,10-tetraazacyclododecane-1,4,7,10-tetraacetic acid sodium salt (1:1)] | 0.150
O=C([O-])CN1CCN(CC(=O)[O-])CCN(CC(=O)[O-])CCN(CC(=O)[O-])CC1.[Gd+3] [Gd-DOTA, reference compound] | 0.064
O=C(CN1CCN(C(CO)C(=O)[O-])CCN(C(CO)C(=O)[O-])CCN(C(CO)C(=O)[O-])CC1)NCCOCCO.[Gd+3] (stereo not drawn) [Example 1, Gadolinium complex of 10-[2-[[2-(2-hydroxyethoxy)ethyl]amino]-2-oxoethyl]-α,α′,α″-tris(hydroxymethyl)-1,4,7,10-tetraazacyclododecane-1,4,7-triacetic acid] | 0.23
